According to patent publication US20240262803A1, “COMPOUNDS, COMPOSITIONS AND METHODS OF TREATING DISORDERS” (Chungdu Anticancer Bioscience Ltd, priority 2021, published 2024):
pEC50: −log10 of the molar value. Entries after “also recorded” stand apart in the source; their conditions may differ.

Columns and labels:
[1] = tested on: lung cancer cell line NCI-H23; experiment: Minimal effective concentration that elicits polyploidy, NCI-H23; type: cell-based; conditions: Homo sapiens, read-out: MECP: Minimal effective concentration that elicits polyploidy
[2] = tested on: lung cancer cell line NCI-H596; experiment: Minimal effective concentration that elicits polyploidy, NCI-H596; type: cell-based, human
[3] = tested on: lung cancer cell line NCI-H2170; experiment: Minimal effective concentration that elicits polyploidy, NCI-H2170; type: cell-based, human
RPEMYC^H2B-GFP cells = experiment: Mechanism-informed phenotypic screening assay (mitotic arrest, polyploidy; GE IN-Cell Analyzer 2000); type: cell-based; conditions: 20 nM to 20 μM, 24, 48 or 72 hours, read-out: Mitotic Arrest (≥5%)
[4] = tested on: colon cancer cell line HCT116; experiment: MTT assay of cellular proliferation, HCT116; type: cell-based; conditions: Homo sapiens, HCT-116, read-out: EC50: Concentration that inhibits 50% of proliferation
In short: (§1)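 EC50 values come from optical density at 570 nm of solubilized MTT formazan, added for 3˜4 h after compound exposure. Cells in DMEM with 5% FBS were treated at 1 nM to 10 μM once 20˜30% confluent.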

[5] = tested on: colon cancer cell line HCT116; experiment: Minimal effective concentration that elicits polyploidy, HCT116; type: cell-based; conditions: Homo sapiens, HCT-116, read-out: MECP: Minimal effective concentration that elicits polyploidy
[6] = tested on: lung cancer cell line NCI-H596; experiment: MTT assay of cellular proliferation, NCI-H596; type: cell-based; conditions: Homo sapiens, read-out: EC50: Concentration that inhibits 50% of proliferation
Procedure: (§2) Six lung cancer cell lines (NCI-H23, NCI-H460, NCI-H596, NCI-H2170, Calu-6 and A549), two colon cancer cell lines (HCT116 and SW460), one breast cancer cell line MDA-MB-231, one gastric cancer cell line NCI-N87, one prostate cancer cell line DU145, one cervical cancer cell line Hela, and one glioblastoma cell line T98G were obtained from ATCC. The T2 HCC cell line was derived from a mouse liver cancer model initiated by a transgene of MYC (Reference). All cell lines were cultured in DMEM (Gibco, Cleveland, TN, USA) supplemented with 5% fetal bovine serum (Gibco), penicillin (100 U/mL)-streptomycin (100 μg/mL) (Gibco, Cat. No. 15140-122), 2 mM L-glutamine (Gibco, 200 mM solution, Cat. No. 25030081), and 1 mM sodium pyruvate (Gibco, 100 mM solution, Cat. No. 11360070) at 37° C. in a humidified incubator that was maintained at 5% CO2.
(§3) The MTT assay measures cellular metabolic activity as a proxy for cell viability and involves the conversion of the water-soluble yellow dye MTT [3-(4,5-dimethylthiazol-2-yl)-2,5-diphenyltetrazolium bromide] into an insoluble purple formazan by the action of mitochondrial reductase. Formazan is then solubilized and its concentration is determined by measuring the optical density (OD) value at a wavelength of 570 nm. The value is in proportional to the number of live cells with excellent linearity up to ˜10^6 cells per well. The MTT assay was used to determine the EC50 value, the concentration of a compound that leads to 50% inhibition of cellular proliferation. Briefly, cells were split when growing to the mid-Log phase. Cells in 100 μL of culture medium were seeded into each well of 96-well microplates and cultivated for 15˜24 hours to reach a confluence of 20˜30% and were then exposed to drugs at concentrations ranging from 1 nM to 10 μM. At the endpoint, 20 μL of a MTT stock solution in DMSO (5 mg/mL) was added to each well that contains […] of DMEM. The microplates were left in the cell culture incubator for 3˜4 h before subjected to solubilization and determination of formazan at A570 in a microplate reader (BioTek ELX808iu). […] Therefore, these compounds might hold a broad utility in the treatment of a large variety of human malignancies.

[7] = tested on: prostate cancer cell line DU145; experiment: Minimal effective concentration that elicits polyploidy, DU145; type: cell-based, human
[8] = tested on: lung cancer cell line A549; experiment: Minimal effective concentration that elicits polyploidy, A549; type: cell-based; conditions: Homo sapiens, read-out: MECP: Minimal effective concentration that elicits polyploidy
[9] = tested on: lung cancer cell line NCI-H460; experiment: MTT assay of cellular proliferation, NCI-H460; type: cell-based; conditions: Homo sapiens, read-out: EC50: Concentration that inhibits 50% of proliferation
Procedure: as §2, §3

[10] = tested on: breast cancer cell line MDA-MB-231; experiment: MTT assay of cellular proliferation, MDA-MB-231; type: cell-based; conditions: Homo sapiens, read-out: EC50: Concentration that inhibits 50% of proliferation
In short: as §1

[11] = tested on: liver cancer cell line T2 HCC; experiment: Minimal effective concentration that elicits polyploidy, T2 HCC; type: cell-based; conditions: Mus musculus, read-out: MECP: Minimal effective concentration that elicits polyploidy
[12] = tested on: gastric cancer cell line NCI-N87; experiment: MTT assay of cellular proliferation, NCI-N87; type: cell-based; conditions: Homo sapiens, read-out: EC50: Concentration that inhibits 50% of proliferation
In short: as §1

[13] = tested on: cervical cancer cell line Hela; experiment: Minimal effective concentration that elicits polyploidy, Hela; type: cell-based; conditions: Homo sapiens, read-out: MECP: Minimal effective concentration that elicits polyploidy
[14] = tested on: lung cancer cell line A549; experiment: MTT assay of cellular proliferation, A549; type: cell-based; conditions: Homo sapiens, read-out: EC50: Concentration that inhibits 50% of proliferation
In short: as §1

[15] = tested on: liver cancer cell line T2 HCC; experiment: MTT assay of cellular proliferation, T2 HCC; type: cell-based; conditions: Mus musculus, read-out: EC50: Concentration that inhibits 50% of proliferation
In short: as §1

[16] = tested on: lung cancer cell line Calu-6; experiment: Minimal effective concentration that elicits polyploidy, Calu-6; type: cell-based, human
[17] = tested on: human lung cancer cell line NCI-H23; experiment: Soft agar colony formation assay, NCI-H23; type: cell-based; conditions: NCI-H23, 3D culture, FIG. 2
Procedure: as §2
Measuring the ability of cells to grow in soft agar has been popularly believed as the gold standard assay for cellular transformation in vitro. In the Soft Agar Assay, cells grow from single cells to cell colonies in a semi-solid agar solution that keeps them away from the solid surface and allows growth in an anchorage-independent way.
The anchorage-independent growth of cells is one of the hallmarks of cancer cells. Normal epithelial cells are supported by basement membranes that provide survival and proliferative signals while undergo a type of apoptosis called anoikis when lose their attachment to the extracellular matrix. Cancer cells, in contrast, evade attachment-induced apoptosis, leading to uncontrolled proliferation and metastasis. The Soft Agar Colony Formation Assay allows testing of the therapeutic efficacy of compounds against anchorage-independent 3D growth of cancer cells in vitro. The assay was performed in 6-well plates with two layers of agar. For the first, 0.75% agar in DMEM medium was melted in a microwave oven and poured to form a bottom layer. […] Cell culture medium was changed once every two days until colonies were ready to photograph. […]

[18] = tested on: glioblastoma cell line T98G; experiment: MTT assay of cellular proliferation, T98G; type: cell-based; conditions: Homo sapiens, read-out: EC50: Concentration that inhibits 50% of proliferation
Procedure: as §2, §3

[19] = tested on: lung cancer cell line NCI-H23; experiment: MTT assay of cellular proliferation, NCI-H23; type: cell-based; conditions: Homo sapiens, read-out: EC50: Concentration that inhibits 50% of proliferation
In short: as §1

In the case of `COC(=O)c1cc(OC)cc(Oc2ncccc2-c2ccncc2)c1` [Compound 2, Methyl 3-([3,4′-bipyridin]-2-yloxy)-5-methoxybenzoate], the minimal effective concentration [1] was 0.001 to 1 µM, the “MECP: Minimal effective concentration that elicits polyploidy” value [2] was “A (A: 1 nM < conc. ≤ 1 μM)” and the “MECP: Minimal effective concentration that elicits polyploidy” value [3] was “A (A: 1 nM < conc. ≤ 1 μM)”. For the same compound, the minimal effective concentration (RPEMYC^H2B-GFP cells) was 1 µM, the pEC50 [4] was 6.00 to 9.00 and the minimal effective concentration [5] was 0.001 to 1 µM. For the same compound, the pEC50 [6] was 6.00 to 9.00, the “MECP: Minimal effective concentration that elicits polyploidy” value [7] was “A (A: 1 nM < conc. ≤ 1 μM)” and the minimal effective concentration [8] was 1 to 10 µM. For the same compound, the pEC50 [9] was 4.52 to 5.00, the pEC50 [10] was 6.00 to 9.00 and the minimal effective concentration [11] was 0.001 to 1 µM. It also gave a pEC50 [12] of 6.00 to 9.00, a minimal effective concentration [13] of 0.001 to 1 µM and a pEC50 [14] of 4.52 to 5.00. The pEC50 [15] was 6.00 to 9.00, the “MECP: Minimal effective concentration that elicits polyploidy” value [16] was “A (A: 1 nM < conc. ≤ 1 μM)” and the “anchorage-independent growth in soft agar” value (“anchorage-independent growth” for short) [17] was “Suppresses the Anchorage-independent Growth; also recorded: completely blocked the growth”. For the same compound, the pEC50 [18] was 6.00 to 9.00 and the pEC50 [19] was 6.00 to 9.00.
`COC(=O)c1cc(Oc2ncccc2-c2ccnc(N)n2)cc(C(=O)OC)c1` [Compound 21, dimethyl 5-((3-(2-aminopyrimidin-4-yl)pyridin-2-yl)oxy)isophthalate] was tested, and the minimal effective concentration [1] was 0.001 to 1 µM, the “MECP: Minimal effective concentration that elicits polyploidy” value [2] was “A (A: 1 nM < conc. ≤ 1 μM)” and the “MECP: Minimal effective concentration that elicits polyploidy” value [3] was “A (A: 1 nM < conc. ≤ 1 μM)”. For the same compound, the minimal effective concentration (RPEMYC^H2B-GFP cells) was 1 µM, the pEC50 [4] was 6.00 to 9.00 and the minimal effective concentration [5] was 0.001 to 1 µM. The pEC50 [6] was 5.00 to 6.00, the “MECP: Minimal effective concentration that elicits polyploidy” value [7] was “A (A: 1 nM < conc. ≤ 1 μM)” and the pEC50 [9] was 4.52 to 5.00. For the same compound, the pEC50 [10] was 6.00 to 9.00, the minimal effective concentration [11] was 0.001 to 1 µM and the pEC50 [12] was 6.00 to 9.00. The minimal effective concentration [13] was 0.001 to 1 µM, the pEC50 [15] was 6.00 to 9.00 and the “MECP: Minimal effective concentration that elicits polyploidy” value [16] was “A (A: 1 nM < conc. ≤ 1 μM)”. The pEC50 [18] was 5.00 to 6.00 and the pEC50 [19] was 6.00 to 9.00.
With `COC(=O)c1cc(OC)cc(Oc2ncccc2-c2ccnc(N)n2)c1` [Compound 23, Methyl 3-((3-(2-aminopyrimidin-4-yl)pyridin-2-yl)oxy)-5-methoxybenzoate] the minimal effective concentration [1] was 0.001 to 1 µM, the “MECP: Minimal effective concentration that elicits polyploidy” value [2] was “A (A: 1 nM < conc. ≤ 1 μM)” and the “MECP: Minimal effective concentration that elicits polyploidy” value [3] was “A (A: 1 nM < conc. ≤ 1 μM)”. It also gave a minimal effective concentration (RPEMYC^H2B-GFP cells) of 1 µM, a pEC50 [4] of 6.00 to 9.00 and a minimal effective concentration [5] of 0.001 to 1 µM. The pEC50 [6] was 6.00 to 9.00, the “MECP: Minimal effective concentration that elicits polyploidy” value [7] was “A (A: 1 nM < conc. ≤ 1 μM)” and the minimal effective concentration [8] was 1 to 10 µM. For the same compound, the pEC50 [9] was 4.52 to 5.00, the pEC50 [10] was 6.00 to 9.00 and the minimal effective concentration [11] was 0.001 to 1 µM. The pEC50 [12] was 6.00 to 9.00, the minimal effective concentration [13] was 0.001 to 1 µM and the pEC50 [14] was 4.52 to 5.00. The pEC50 [15] was 5.00 to 6.00, the “MECP: Minimal effective concentration that elicits polyploidy” value [16] was “A (A: 1 nM < conc. ≤ 1 μM)” and the “anchorage-independent growth” value [17] was “Suppress the Anchorage-independent Growth; also recorded: completely blocked the growth”. It also gave a pEC50 [18] of 4.52 to 5.00 and a pEC50 [19] of 6.00 to 9.00.
In the case of `COC(=O)c1cc(Oc2ncccc2-c2ccncc2)cc(C(=O)OC)c1` [Compound 1, Dimethyl 5-([3,4′-bipyridin]-2-yloxy)isophthalate], the minimal effective concentration [1] was 0.001 to 1 µM, the “MECP: Minimal effective concentration that elicits polyploidy” value [2] was “A (A: 1 nM < conc. ≤ 1 μM)” and the “MECP: Minimal effective concentration that elicits polyploidy” value [3] was “A (A: 1 nM < conc. ≤ 1 μM)”. For the same compound, the minimal effective concentration (RPEMYC^H2B-GFP cells) was 1 µM, the pEC50 [4] was 6.00 to 9.00 and the minimal effective concentration [5] was 0.001 to 1 µM. The pEC50 [6] was 4.52 to 5.00, the “MECP: Minimal effective concentration that elicits polyploidy” value [7] was “A (A: 1 nM < conc. ≤ 1 μM)” and the minimal effective concentration [8] was 1 to 10 µM. The pEC50 [9] was 4.52 to 5.00, the pEC50 [10] was 6.00 to 9.00 and the minimal effective concentration [11] was 0.001 to 1 µM. The pEC50 [12] was 6.00 to 9.00, the minimal effective concentration [13] was 0.001 to 1 µM and the pEC50 [14] was 4.52 to 5.00. For the same compound, the pEC50 [15] was 6.00 to 9.00, the “MECP: Minimal effective concentration that elicits polyploidy” value [16] was “A (A: 1 nM < conc. ≤ 1 μM)” and the “anchorage-independent growth” value [17] was “completely blocked the growth”. It also gave a pEC50 [18] of 6.00 to 9.00 and a pEC50 [19] of 6.00 to 9.00.
